Columns and labels:
[1] = system: HT1080 human fibrosarcoma cells; test: HT1080 ectopic xenograft, TH-302/doxorubicin dosing schedules; format: in vivo, nude mice; settings: single agent, TH-302 100 mg/kg ip 1/wkx2wks or Dox 4 mg/kg iv 1/wkx2wks
Procedure: (§1) Anti-tumor activity was evaluated by tumor growth delay (TGD) and tumor growth inhibition (TGI). Body weight change, gross and microscopic assessment of tissue changes, and hematologic assays served for toxicity assessment. Testing in these models was conducted generally as follows. 1×10^6 (H460 human non-small cell lung cancer or HT1080 human fibrosarcoma cells) or 3×10^6 (PC-3 human prostate cancer cells) were implanted in the subcutaneous space of the right flank to obtain ectopic xenograft models. Randomization and dosing was initiated when tumors reached a certain size (100-150 mm^3). API grade of TH-302 was used in all experiments while docetaxel, gemcitabine, cisplatin, pemetrexed, and doxorubicin were purchased from commercial sources.
(§2) The H460 cells were prepared in 30% Matrigel and 70%. RPMI1640. Mice were anesthetized by isoflurane and were implanted subcutaneously with 1×10^6 cells (in 200 μl) at the flank position. We selected 110 mice bearing similar size tumors (˜100 mm^3) for the study. Mice bearing similar tumor size were randomly assigned into different groups. Treatment started on day 1 (7 days after tumor implantation) except as noted. TH-302 was administered intraperitoneally (IP) at 150 mg/kg, and docetaxel was administered intravenously (IV) at 10 mg/kg. Animals were observed daily and tumor measurements and body weights recorded twice weekly.
In a study conducted substantially as described above except the cells implanted were HT1080 human fibrosarcoma cells and 1×10^6 cells were implanted and mice were randomized into separate groups when their […]

Calu6 NSCLC = test: Calu-6 ectopic tumor model, TH-302 with doxorubicin; format: in vivo, nude mice; settings: Dox 4 mg/kg IV Q7Dx2; TH-302 50 mg/kg IP QDx5/wkx2wks; alone or combined
H460 NSCLC cells = test: H460 ectopic xenograft, TH-302/pemetrexed dosing schedules; format: in vivo, nude mice; settings: single agent, TH-302 100 mg/kg ip Q7Dx2 or PMX 150 mg/kg ip Q7Dx2
Procedure: as §1, §2
In a study conducted substantially as described above except the cells implanted were H460 NSCLC cells and 1×10^6 cells were implanted and mice were randomized into separate groups when their tumors reached ˜100 mm^3 and the chemotherapeutic employed was pemetrexed at a dose of 150 mg/kg given once a week (Q7D) for two weeks IP and the TH-302 was given at 100 mg/kg given once a week (Q7D) for two weeks IP. […]

H460 NSCLC [2] = test: H460 ectopic lung cancer model, TH-302 with pemetrexed; format: in vivo, nude mice; settings: PMX 150 mg/kg 1/wkx2wks IP; TH-302 50 mg/kg 5/wkx2wks IP; alone or combined
Procedure: (§3) Anti-tumor activity was evaluated by tumor growth inhibition (TGI) and tumor growth delay (TGD). Body weight change, gross and microscopic assessment of tissue changes, and hematologic assays served for toxicity assessment.
(§4) Testing in these models was conducted generally as follows. 1×10^6 H460 human non-small cell lung cancer or HT1080 human fibrosarcoma cells were implanted in the subcutaneous space of the right flank to obtain ectopic xenograft models. For the orthotopic pancreatic model, red-fluorescent protein (RFP) expressing MIA PaCa2 tumors were surgically implanted on the surface of the pancreas. The prostate metastatic model was created by the intraventricular injection of 3×10^6 luciferase-expressing PC-3 cells. […] API grade of TH-302 was used in all experiments while docetaxel, gemcitabine, doxorubicin and pemetrexed were purchased from commercial sources.

[3] = system: orthotopic prostate cancer PC-3 cells; test: Orthotopic PC-3 prostate cancer model, TH-302 with Taxol; format: in vivo, mice; settings: single agents: Taxol 12 mg/kg; TH-302 30 or 50 mg/kg
Procedure: TH-302 was tested as monotherapy and in combination with Taxol (paclitaxel) in animals bearing highly invasive and metastatic orthotopic prostate cancer PC-3 cells. Animals were randomized into 6 groups of 8 mice each and then treated either with vehicle; Taxol (12 mg/kg, IV, twice a week for 4 consecutive weeks); TH-302 (30 or 50 mg/kg, IP, once a day for 5 days a week for 2 consecutive weeks); or Taxol in combination with TH-302 (using the same single agent regimens).

[4] = single agent, Phase I study; cited from earlier work
[5] = system: H460 human non-small cell lung cancer; test: H460 ectopic xenograft, TH-302/docetaxel dosing schedules; format: in vivo, nude mice; settings: single agent, TH-302 100 mg/kg ip once or Docetaxol 10 mg/kg iv once
Procedure: as §1
as §2, with “TH-302 was administered intraperitoneally (IP) at 150 mg/kg, and docetaxel was administered intravenously (IV) at 10 mg/kg.” left out

[6] = system: PC-3 human prostate cancer cells; test: PC-3 ectopic xenograft, TH-302/docetaxel dosing schedules; format: in vivo, nude mice; settings: single agent, TH-302 150 mg/kg ip once or Docetaxol 10 mg/kg iv once
H460 NSCLC [7] = test: H460 ectopic tumor model, TH-302 with carboplatin; format: in vivo, nude mice; settings: Carboplatin 20 mg/kg IV Q7Dx2; TH-302 100 mg/kg IP Q7Dx2; alone or combined
Procedure: as §3, §4
Inhibition of tumor growth after administration of TH-302 and carboplatin was greater than for either drug individually in an ectopic tumor model using H460 cells.

HT29 colon cancer = test: HT-29 ectopic tumor model, TH-302 with 5FU; format: in vivo, nude mice; settings: 5-FU 50 mg/kg IV Q3Dx4; TH-302 150 mg/kg IP Q7Dx3; alone or combined

Q: Which “Days to 500 mm^3” value [1] does the source give for COc1cccc2c1C(=O)c1c(O)c3c(c(O)c1C2=O)C[C@@](O)(C(=O)CO)C[C@@H]3O[C@H]1C[C@H](N)[C@H](O)[C@H](C)O1 [Dox, doxorubicin, reference compound] here?
A: 24 days

Q: What about the T/C [1] of the same compound?
A: 5.1%

Q: What about the “TGD500, Days (vs. vehicle)” value [1] of the same compound?
A: 12 days

Q: And the TGI [1]?
A: 94.9%

Q: And the “Tn (tumor volume on Day n)” value [1]?
A: 154.79

Q: What about the “Days to 500 mm^3” value (Calu6 NSCLC) of the same compound?
A: 27 days

Q: What about the “Days to 1000 mm^3” value (Calu6 NSCLC) of the same compound?
A: 35 days

Q: What about the T/C (Calu6 NSCLC) of the same compound?
A: 67.7%

Q: And the “TGD500, Days (vs. vehicle)” value (Calu6 NSCLC)?
A: 9 days

Q: And the “TGD1000, Days (vs. vehicle)” value (Calu6 NSCLC)?
A: 4 days

Q: And the TGI (Calu6 NSCLC)?
A: 32.3%

Q: What about the “Tn (tumor volume on Day n)” value (Calu6 NSCLC) of the same compound?
A: 773.97

Q: For Nc1nc2[nH]cc(CCc3ccc(C(=O)N[C@@H](CCC(=O)O)C(=O)O)cc3)c2c(=O)[nH]1 [PMX, pemetrexed, reference compound], which “Days to 500 mm^3” value (H460 NSCLC cells) is on record?
A: 14 days

Q: And the “Days to 1000 mm^3” value (H460 NSCLC cells)?
A: 24 days

Q: What about the T/C (H460 NSCLC cells) of the same compound?
A: 72.4%

Q: What about the “TGD500, Days (vs. vehicle)” value (H460 NSCLC cells) of the same compound?
A: 2 days

Q: And the “TGD1000, Days (vs. vehicle)” value (H460 NSCLC cells)?
A: 3 days

Q: What about the TGI (H460 NSCLC cells) of the same compound?
A: 27.6%

Q: What about the “Tn (tumor volume on Day n)” value (H460 NSCLC cells) of the same compound?
A: 817.45

Q: And the “Days to 500 mm^3” value (H460 NSCLC [2])?
A: 19 days

Q: And the “Days to 1000 mm^3” value (H460 NSCLC [2])?
A: 29 days

Q: And the T/C (H460 NSCLC [2])?
A: 70.2%

Q: And the “TGD500, Days (vs. vehicle)” value (H460 NSCLC [2])?
A: 5 days

Q: And the “TGD1000, Days (vs. vehicle)” value (H460 NSCLC [2])?
A: 5 days

Q: And the TGI (H460 NSCLC [2])?
A: 29.8%

Q: What about the “Tn (tumor volume on Day n)” value (H460 NSCLC [2]) of the same compound?
A: 850.21

Q: With CC(=O)O[C@H]1C(=O)[C@@]2(C)[C@H]([C@H](OC(=O)c3ccccc3)[C@]3(O)C[C@H](OC(=O)[C@H](O)[C@@H](NC(=O)c4ccccc4)c4ccccc4)C(C)=C1C3(C)C)[C@]1(OC(C)=O)CO[C@@H]1C[C@@H]2O [Taxol, paclitaxel, reference compound] as the compound, how does the “Primary tumor growth during the treatment period” value [3] read?
A: significantly inhibited primary tumor growth

Q: For CS(=O)(=O)OCCN(CCBr)c1c(C(=O)NCCOP(=O)(O)O)cc([N+](=O)[O-])cc1[N+](=O)[O-] [PR104], which “Maximum tolerated dose (MTD) and recommended dose” value [4] is on record?
A: 1,100 mg/m^2

Q: What does the source list for CC(=O)O[C@@]12CO[C@@H]1C[C@H](O)[C@@]1(C)C(=O)[C@H](O)C3=C(C)[C@@H](OC(=O)[C@H](O)[C@@H](NC(=O)OC(C)(C)C)c4ccccc4)C[C@@](O)([C@@H](OC(=O)c4ccccc4)[C@H]21)C3(C)C [Docetaxol, docetaxel, reference compound]?
A: Days to 500 mm^3 [5]: 18 days; Days to 1000 mm^3 [5]: 27 days; T/C [5]: 57.6%; TGD500, Days (vs. vehicle) [5]: 5 days; TGD1000, Days (vs. vehicle) [5]: 7 days; TGI [5]: 42.4%; Tn (tumor volume on Day n) ([5]; in mm³): 681.36; Days to 500 mm^3 [6]: 26 days; T/C [6]: 49.1%; TGD500, Days (vs. vehicle) [6]: 10 days; TGI [6]: 50.9%; Tn (tumor volume on Day n) ([6]; in mm³): 563.22

Q: With N.N.O=C([O-])C1(C(=O)[O-])CCC1.[Pt+2] [Carboplatin, carboplatin, reference compound] as the compound, how does the “Days to 500 mm^3” value (H460 NSCLC [7]) read?
A: 11.5 days

Q: And the “Days to 1000 mm^3” value (H460 NSCLC [7])?
A: 18.5 days

Q: What about the T/C (H460 NSCLC [7]) of the same compound?
A: 69.7%

Q: What about the “TGD500, Days (vs. vehicle)” value (H460 NSCLC [7]) of the same compound?
A: 2 days

Q: What about the “TGD1000, Days (vs. vehicle)” value (H460 NSCLC [7]) of the same compound?
A: 4.5 days

Q: And the TGI (H460 NSCLC [7])?
A: 30.3%

Q: And the “Tn (tumor volume on Day n)” value (H460 NSCLC [7])?
A: 855.6

Q: For O=c1[nH]cc(F)c(=O)[nH]1 [Formulation 5-FU, 5-fluorouracil, reference compound], which “Days to 500 mm^3” value (HT29 colon cancer) is on record?
A: 31 days

Q: What about the “Days to 1000 mm^3” value (HT29 colon cancer) of the same compound?
A: 43 days

Q: What about the T/C (HT29 colon cancer) of the same compound?
A: 43.1%

Q: And the “TGD500, Days (vs. vehicle)” value (HT29 colon cancer)?
A: 9 days

Q: What about the “TGD1000, Days (vs. vehicle)” value (HT29 colon cancer) of the same compound?
A: 11 days

Q: What about the TGI (HT29 colon cancer) of the same compound?
A: 56.9%

Q: What about the “Tn (tumor volume on Day n)” value (HT29 colon cancer) of the same compound?
A: 514.11
